Data published in patent publication US20230304010A1, “COMPOSITIONS AND METHODS FOR TREATING VIRAL INFECTIONS” (priority 2020, published 2023).
Where “and” joins values, the source holds several entries; their conditions need not be identical. Identical values can stand only once. Like-named read-outs stand apart in the source and are kept apart here. Ends that are not written are not given here. Peptide text beside a SMILES is read from it.

Experiments:
[1] = target: SARS-CoV-2 Spike: ACE2 interaction (UniProt P0DTC2+Q9BYF1); test: biochemical; assay type: binding
Sequence of SARS-CoV-2 Spike: ACE2 interaction (Q9BYF1 18-740, one chain of several): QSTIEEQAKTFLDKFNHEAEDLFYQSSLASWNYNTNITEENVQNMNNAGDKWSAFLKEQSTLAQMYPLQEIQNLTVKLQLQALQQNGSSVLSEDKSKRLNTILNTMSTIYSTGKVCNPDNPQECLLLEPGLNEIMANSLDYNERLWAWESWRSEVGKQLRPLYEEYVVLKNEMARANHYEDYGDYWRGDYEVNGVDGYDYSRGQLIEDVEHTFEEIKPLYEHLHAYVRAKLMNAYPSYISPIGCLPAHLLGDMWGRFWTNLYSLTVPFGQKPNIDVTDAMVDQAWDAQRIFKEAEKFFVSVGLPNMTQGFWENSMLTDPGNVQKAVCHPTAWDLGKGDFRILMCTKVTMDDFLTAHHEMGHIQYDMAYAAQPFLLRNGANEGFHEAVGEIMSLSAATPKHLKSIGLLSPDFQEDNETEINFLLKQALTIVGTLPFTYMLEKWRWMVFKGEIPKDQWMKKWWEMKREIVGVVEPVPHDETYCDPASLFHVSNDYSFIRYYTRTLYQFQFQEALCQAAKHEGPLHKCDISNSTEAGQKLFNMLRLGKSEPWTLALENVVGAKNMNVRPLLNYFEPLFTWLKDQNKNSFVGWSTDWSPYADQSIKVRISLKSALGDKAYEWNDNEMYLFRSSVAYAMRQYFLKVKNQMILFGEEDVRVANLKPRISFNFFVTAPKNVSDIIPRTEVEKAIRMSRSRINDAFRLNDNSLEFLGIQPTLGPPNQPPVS

[2] = target: ACE2:SARS-CoV-2 Spike interaction (UniProt P0DTC2+Q9BYF1); test: biochemical; assay type: binding
Sequence of ACE2:SARS-CoV-2 Spike interaction (Q9BYF1 18-740, one chain of several): as above

[3] = Nanoparticle formation of peptides with ADGN-106: mean size and polydispersity (Zetasizer); assay type: physicochemical; conditions: 25° C.; for Mean Size (nm): peptide/ADGN-106 complexes; for PI: polydispersity index of peptide/ADGN-106 complexes
Excerpt: We then tested the ability of the different peptides to form nanoparticle organization in the presence of ADGN-106 or ADGN-100 peptide. […] Peptides were complexed with 5 or 10 molar excess of ADGN-106.

[4] = read-out: SARS-CoV-2 Spike:ACE2 IC50
[5] = read-out: ACE2:SARS-CoV-2 Spike IC50
[6] = IC50, block of SARS-CoV-2 Spike: ACE2 interaction
[7] = IC50, block of ACE2:SARS-CoV-2 Spike interaction

Row | Compound | IC50 ([1]; SARS-CoV-2 Spike:ACE2 IC50) | IC50 ([2]; ACE2:SARS-CoV-2 Spike IC50) | also measured
1 | STEYQAGST [Seq5] | > 10 µM | > 10 µM | 
2 | Ac-K*VGGNYNYK*-Ava-LWRALWRLWRSLWRLLWK-NH2 [Seq13] |  |  | IC50 [1, 4]: > 10 µM; IC50 [2, 5]: > 10 µM
3 | CSCC[C@H](NC(=O)[C@H](CO)NC(=O)[C@H](CC(N)=O)NC(=O)[C@H](CCC(=O)O)NC(=O)[C@H](Cc1c[nH]c2ccccc12)NC(=O)[C@H](Cc1ccccc1)NC(=O)CNC(=O)[C@H](CCC(N)=O)NC(=O)[C@@H](NC(=O)[C@H](CCSC)NC(=O)[C@H](CC(N)=O)NC(C)=O)[C@@H](C)O)C(=O)N[C@@H](CC(C)C)C(=O)N[C@H](C(=O)N[C@@H](CC(=O)O)C(=O)NCCCCCC(=O)N[C@@H](CC(C)C)C(=O)N[C@@H](Cc1c[nH]c2ccccc12)C(=O)N[C@@H](CCCNC(=N)N)C(=O)N[C@@H](C)C(=O)N[C@@H](CC(C)C)C(=O)N[C@@H](Cc1c[nH]c2ccccc12)C(=O)N[C@@H](CCCNC(=N)N)C(=O)N[C@@H](CC(C)C)C(=O)N[C@@H](Cc1c[nH]c2ccccc12)C(=O)N[C@@H](CCCNC(=N)N)C(=O)N[C@@H](CO)C(=O)N[C@@H](CC(C)C)C(=O)N[C@@H](Cc1c[nH]c2ccccc12)C(=O)N[C@@H](CCCNC(=N)N)C(=O)N[C@@H](CC(C)C)C(=O)N[C@@H](CC(C)C)C(=O)N[C@@H](Cc1c[nH]c2ccccc12)C(=O)N[C@@H](CCCCN)C(N)=O)[C@@H](C)O [Seq37] | > 1 µM | 0.645 µM | Mean Size (nm) [3]: 59.2 ± 14 nm; PI [3]: 0.24
4 | Ac-T*EYQAGSTK*Ava-LWRALWRLWRSLWRLLWK-NH2 [Seq16] |  |  | IC50 [1, 4]: > 1 µM; IC50 [2, 5]: > 10 µM; Mean Size (nm) [3]: 44.2 ± 7 nm; PI [3]: 0.28
5 | KVGGNYNYL [Seq2] | > 10 µM | > 10 µM | 
6 | CSCC[C@H](NC(=O)[C@H](CCC(N)=O)NC(=O)[C@H](C)NC(=O)[C@H](CC(C)C)NC(=O)[C@@H](NC(=O)[C@H](CO)NC(=O)[C@H](CCC(N)=O)NC(=O)[C@H](CCC(=O)O)NC(=O)[C@H](CCCCN)NC(=O)[C@H](CC(C)C)NC(=O)[C@H](Cc1ccccc1)NC(=O)[C@H](C)NC(=O)[C@H](CO)NC(=O)[C@H](Cc1c[nH]c2ccccc12)NC(=O)[C@H](CCCCN)NC(=O)[C@@H]1CCCN1C(=O)[C@H](Cc1ccccc1)NC(=O)[C@H](CC(C)C)NC(=O)[C@H](CC(=O)O)NC(=O)[C@H](CCC(=O)O)NC(=O)[C@H](C)NC(=O)[C@H](CCC(=O)O)NC(=O)[C@H](Cc1c[nH]cn1)NC(=O)[C@H](CC(N)=O)NC(=O)[C@H](Cc1ccccc1)NC(=O)[C@H](CCCCN)NC(=O)[C@H](CC(=O)O)NC(=O)[C@H](CC(C)C)NC(=O)[C@H](Cc1ccccc1)NC(=O)[C@@H](NC(=O)[C@H](CCCCN)NC(C)=O)[C@@H](C)O)[C@@H](C)O)C(=O)N[C@@H](Cc1ccc(O)cc1)C(=O)NCC(=O)NCCCCCC(=O)N[C@@H](CC(C)C)C(=O)N[C@@H](Cc1c[nH]c2ccccc12)C(=O)N[C@@H](CCCNC(=N)N)C(=O)N[C@@H](C)C(=O)N[C@@H](CC(C)C)C(=O)N[C@@H](Cc1c[nH]c2ccccc12)C(=O)N[C@@H](CCCNC(=N)N)C(=O)N[C@@H](CC(C)C)C(=O)N[C@@H](Cc1c[nH]c2ccccc12)C(=O)N[C@@H](CCCNC(=N)N)C(=O)N[C@@H](CO)C(=O)N[C@@H](CC(C)C)C(=O)N[C@@H](Cc1c[nH]c2ccccc12)C(=O)N[C@@H](CCCNC(=N)N)C(=O)N[C@@H](CC(C)C)C(=O)N[C@@H](CC(C)C)C(=O)N[C@@H](Cc1c[nH]c2ccccc12)C(=O)N[C@@H](CCCCN)C(N)=O [Seq40] | 0.0451 µM | 0.0854 ± 0.012 µM | increase of potency/efficiency by covalent coupling to ADGN peptide [2]: 1.4 folds; Mean Size (nm) [3]: 54.5 ± 14 nm; PI [3]: 0.31
7 | CC(C)C[C@H](NC(=O)[C@H](Cc1ccc(O)cc1)NC(=O)[C@H](CC(N)=O)NC(=O)[C@H](Cc1ccc(O)cc1)NC(=O)[C@H](CC(N)=O)NC(=O)CNC(=O)CNC(=O)[C@@H](NC(=O)[C@H](CCCCN)NC(=O)[C@@H](N)CO)C(C)C)C(=O)N[C@@H](Cc1ccc(O)cc1)C(=O)N[C@@H](CCCNC(=N)N)C(=O)O [Seq1] | > 10 µM | > 10 µM | 
8 | Ac-V*EGENCYF*Ava-LWRALWRLWRSLWRLLWK-NH2 [Seq18] |  |  | IC50 [1, 4]: > 10 µM; IC50 [2, 5]: > 10 µM
9 | TNGVGYQPY [Seq11] | > 1 µM | > 1 µM | 
10 | CC(C)C[C@H](NC(=O)[C@H](CCCNC(=N)N)NC(=O)[C@H](Cc1ccc(O)cc1)NC(=O)[C@H](CC(C)C)NC(=O)[C@H](Cc1ccc(O)cc1)NC(=O)[C@H](CC(N)=O)NC(=O)[C@H](Cc1ccc(O)cc1)NC(=O)[C@H](CC(N)=O)NC(=O)CNC(=O)CN)C(=O)N[C@@H](Cc1ccccc1)C(=O)N[C@@H](CCCNC(=N)N)C(=O)N[C@@H](CCCCN)C(=O)O [Seq4] | > 10 µM | > 10 µM | 
11 | CC(C)C[C@H](NC(=O)[C@@H]1CCCN1C(=O)[C@H](Cc1ccccc1)NC(=O)[C@@H](N)Cc1ccc(O)cc1)C(=O)N[C@@H](CCC(N)=O)C(=O)N[C@@H](CO)C(=O)N[C@@H](Cc1ccc(O)cc1)C(=O)NCC(=O)N[C@@H](Cc1ccccc1)C(=O)N[C@@H](CCC(N)=O)C(=O)N1CCC[C@H]1C(=O)N[C@H](C(=O)N[C@@H](CC(N)=O)C(=O)NCC(=O)N[C@H](C(=O)NCC(=O)N[C@@H](Cc1ccc(O)cc1)C(=O)N[C@@H](CCC(N)=O)C(=O)O)C(C)C)[C@@H](C)O [Seq8] | > 10 µM | > 10 µM | 
12 | Ac-NMTQGFWENPGGPTAWDLGK [Seq31] | > 10 µM | > 10 µM | IC50 [1, 6]: > 10 µM; IC50 [2, 7]: > 10 µM and 25 µM
13 | CC[C@H](C)[C@H](NC(=O)[C@H](CCCNC(=N)N)NC(=O)[C@H](Cc1ccccc1)NC(=O)[C@H](CC(=O)O)NC(=O)CNC(=O)[C@H](CCCCN)NC(=O)CNC(=O)[C@H](CC(C)C)NC(=O)[C@H](CC(=O)O)NC(=O)[C@H](Cc1c[nH]c2ccccc12)NC(=O)[C@H](C)NC(=O)[C@@H](NC(C)=O)[C@@H](C)O)C(=O)NCCCCCC(=O)N[C@@H](CC(C)C)C(=O)N[C@@H](Cc1c[nH]c2ccccc12)C(=O)N[C@@H](CCCNC(=N)N)C(=O)N[C@@H](C)C(=O)N[C@@H](CC(C)C)C(=O)N[C@@H](Cc1c[nH]c2ccccc12)C(=O)N[C@@H](CCCNC(=N)N)C(=O)N[C@@H](CC(C)C)C(=O)N[C@@H](Cc1c[nH]c2ccccc12)C(=O)N[C@@H](CCCNC(=N)N)C(=O)N[C@@H](CO)C(=O)N[C@@H](CC(C)C)C(=O)N[C@@H](Cc1c[nH]c2ccccc12)C(=O)N[C@@H](CCCNC(=N)N)C(=O)N[C@@H](CC(C)C)C(=O)N[C@@H](CC(C)C)C(=O)N[C@@H](Cc1c[nH]c2ccccc12)C(=O)N[C@@H](CCCCN)C(N)=O [Seq36] | > 1 µM | > 1 µM | 
14 | CC(C)[C@H](NC(=O)CNC(=O)[C@H](CC(N)=O)NC(=O)[C@@H](N)CS)C(=O)N[C@@H](CCC(=O)O)C(=O)NCC(=O)N[C@@H](Cc1ccccc1)C(=O)N[C@@H](CC(N)=O)C(=O)N[C@@H](CS)C(=O)O [Seq6] (H-CNGVEGFNC-OH) | > 10 µM | > 10 µM | 
15 | Ac-EQAKTFLDKFNHEAEDLF [Seq24] | 1.3 µM | 0.57 ± 0.03 µM | 
16 | Ac-NMTQGFWENSMLTD [Seq30] | > 10 µM | > 10 µM | IC50 [1, 6]: > 10 µM; IC50 [2, 7]: > 10 µM
17 | Ac-G*NYNYLYRL*-Ava-LWRALWRLWRSLWRLLWK-NH2 [Seq14] |  |  | IC50 [1, 4]: > 10 µM; IC50 [2, 5]: > 10 µM
18 | Ac-KTFLDKFNHEAEDLFYS [Seq26] | 1.9 µM | 2.1 µM | 
19 | VEGFNCYFP [Seq7] | > 10 µM | > 10 µM | 
20 | Ac-TAWDLGKGDFRI [Seq29] | > 10 µM | > 10 µM | IC50 [1, 6]: > 10 µM; IC50 [2, 7]: > 10 µM
21 | SYGFQPTNGV [Seq9] | > 10 µM | > 10 µM | 
22 | Ac-EQAKTFLDKFNHEAEDLFPKWSAFLKEQSTLAQMYG [Seq27] |  |  | folds more potent than SBP-1-ADGN-106/ADGN-106 complex [1]: 4 folds; folds more potent than SBP-1 coupled to ADGN-106 [1]: 3.5 folds; folds more potent than SBP-1 peptide/ADGN-106 complex [1]: 35 folds; folds more potent than free SBP-1 [1]: 7 folds; folds more potent than SBP-1-ADGN-106/ADGN-106 complex [2]: 6 folds; folds more potent than SBP-1 coupled to ADGN-106 [2]: 6 folds; folds more potent than SBP-1 peptide/ADGN-106 complex [2]: 40 folds; folds more potent than free SBP-1 [2]: 15 folds; Mean Size (nm) [3]: 62.1 ± 10 nm; PI [3]: 0.21
23 | Ac-KTFLDKFNHEAEDLF [Seq25] | 2.5 µM | 1.9 µM | 
24 | GNYNYLYRL [Seq3] | > 10 µM | > 10 µM | 
25 | GFQPTNGVK [Seq10] | > 10 µM | > 10 µM | 
26 | Ac-S*KVGGNYNYLY*R-Ava/Ahx-LWRALWRLWRSLWRLLWK-NH2 [Seq12] |  |  | blocked ACE2:SARS-CoV-2 Spike interaction [2]: blocked; Mean Size (nm) [3]: 35.4 ± 5 nm; PI [3]: 0.21
